Experimental data taken from patent US20240216357A1 (SICHUAN HUIYU PHARMACEUTICAL CO., LTD., priority 2021, published 2024).
Structures can show the parent of a compound that is named as a salt. Where two headings read alike, the source gives them in different places.

Columns and labels:
LSD1 = LSD1 (Homo sapiens (Human), UniProt O60341); assay: LSD1 enzyme activity detection (HTRF); type: biochemical; conditions: read-out: Inhibition of enzymatic activity of LSD1 IC50
NCI-H1417 cells = assay: In vitro cell proliferation detection (CellTiter-Glo, 7 days); type: cell-based
[1] = Homo sapiens, 168 h, NCI-H1417 cells, 7 days, CellTiter-Glo, read-out: NCI-H1417 proliferation inhibition IC50

SMILES | IC50 (LSD1; HTRF, H3K4me1 substrate) [nM] | IC50 (NCI-H1417 cells; [1]) [nM] | other results
CN(CCCN)c1cc(O)c(-c2ccc(Cl)c(O)c2)c(-c2ccc(C#N)c(F)c2)n1 [Example 61, 4-(6-((3-aminopropyl)(methyl)amino)-3-(4-chloro-3-hydroxyphenyl)-4-hydroxypyridin-2-yl)-2-fluorobenzonitrile] | 26.4 | 387 | 
COc1ccc(-c2c(O)cc(N3CCN(C)CC3)nc2-c2ccc(C#N)c(F)c2)cc1F [Example 15, 2-fluoro-4-(3-(3-fluoro-4-methoxyphenyl)-4-hydroxy-6-(4-methylpiperazin-1-yl)pyridin-2-yl)benzonitrile] | 49.9 | 104 | 
COc1ccc(-c2c(O)cc(N3CCC(N)CC3)nc2-c2ccc(C#N)c(F)c2)c(F)c1F [Example 35, 4-(6-(4-aminopiperidin-1-yl)-3-(2,3-difluoro-4-methoxyphenyl)-4-hydroxypyridin-2-yl)-2-fluorobenzonitrile] | 35.7 | 31.8 | 
COc1ccc(-c2cnc(N3CC(N)C3)c(C#N)c2-c2ccc(C#N)c(F)c2)cc1O [Example 82, 2-(3-aminoazetidin-1-yl)-4-(4-cyano-3-fluorophenyl)-5-(3-hydroxy-4-methoxyphenyl) nicotinonitrile] | 12.9 ± 0.2 | 72.4 | 
Cc1ccc(-c2c(-c3ccc(C#N)c(F)c3)nc(N3CCC(N)CC3)c3ccoc23)cc1O [Example 268, 4-(4-(4-aminopiperidin-1-yl)-7-(3-hydroxy-4-methylphenyl)furan[3,2-c]pyridin-6-yl)-2-fluorobe nzonitrile hydrochloride] |  |  | IC50 (LSD1): 1.5 ± 0.5 nM; IC50 (NCI-H1417 cells; read-out: NCI-H1417 proliferation inhibition IC50): 0.378 nM
CC(C)(O)Cc1ccc(-c2c(O)cc(N3CCC(N)CC3)nc2-c2ccc(C#N)c(F)c2)cc1F [Example 39, 4-(6-(4-aminopiperidin-1-yl)-3-(3-fluoro-4-(2-hydroxy-2-methylpropyl)phenyl)-4-hydroxypyridin-2-yl)-2-fluorobenzonitrile hydrochloride] | 21.5 ± 7.6 | 121 | 
COc1ccc(-c2nc(CN[C@@H]3C[C@H]3c3ccc(F)cc3)cc(C(=O)N3CCOCC3)n2)cc1O [Example 241] | 26.9 | 12.6 | 
Cc1ccc(-c2c(-c3ccc(C#N)c(F)c3)nc(N3CCC(N)CC3)c(C)c2O)cc1O [Example 65, 4-(6-(4-aminopiperidin-1-yl)-4-hydroxy-3-(3-hydroxy-4-methylphenyl)-5-methylpyridin-2-yl)-2-fluorobenzonitrile hydrochloride] | 0.7 ± 0.4 | 0.95 | 
N#Cc1ccc(-c2nc(N3CCC(N)CC3)n3ccnc3c2-c2ccc(Cl)c(O)c2)cc1F [Example 142, 4-(5-(4-aminopiperidin-1-yl)-8-(4-chloro-3-hydroxyphenyl)imidazolo[1,2-c]pyrimidin-7-yl)-2-fluorobenzonitrile formate] | 0.198 | 0.214 | 
Cc1ccc(-c2c(-c3ccc(C#N)c(F)c3)nc(N3CC4CCC3CC4N)n3ccnc23)cc1O (stereo not shown) [Example 168, 4-(5-(5-amino-2-azabicyclo [2.2.2]octane-2-yl)-8-(3-hydroxy-4-methylphenyl)imidazolo[1,2-c]pyrimidin-7-yl)-2-fluorobenzo nitrile] | 0.5 ± 0.1 | 1.24 | 
COc1ccc(-c2c(OCC3COC3)cc(N3CCC(N)CC3)nc2-c2ccc(C#N)c(F)c2)cc1O [Example 109, 4-(6-(4-aminopiperidin-1-yl)-3-(3-hydroxy-4-methoxyphenyl)-4-(oxetane-3-yl-methoxy)pyridin-2-yl)-2-fluorobenzonitrile hydrochloride] | 4 ± 1.7 | 16 | 
N#Cc1ccc(-c2nc(N3CCC(N)CC3)cc(O)c2-c2cc(O)c(F)c(F)c2)cc1F [Example 46, 4-(6-(4-aminopiperidin-1-yl)-3-(3,4-difluoro-5-hydroxyphenyl)-4-hydroxypyridin-2-yl)-2-fluorobenzonitrile] | 2 ± 1.4 | 96.4 | 
CCOc1cc(N2CCC(N)CC2)nc(-c2ccc(C#N)c(F)c2)c1-c1ccc(OC)c(O)c1 [Example 103, 4-(6-(4-aminopiperidin-1-yl)-4-ethoxy-3-(3-hydroxy-4-methoxyphenyl)pyridin-2-yl)-2-fluorobe nzonitrile] |  |  | IC50 (LSD1): 0.6 ± 0.2 nM; IC50 (NCI-H1417 cells; Homo sapiens, NCI-H1417, 168 h, read-out: NCI-H1417 proliferation inhibition IC50(nM)): 6.27 nM
CS(=O)(=O)N1CCN(c2cc(CN[C@@H]3C[C@H]3c3ccc(F)cc3)nc(-c3ccc(C#N)cc3)n2)CC1 [Example 264, 4-(4-((((1R,2S)-2-(4-fluoro-phenyl)cyclopropyl)amino)methyl)-6-(4-(methylsulfonyl)piperazin-1-yl)pyrimidin-2-yl)benzonitrile] | 87.6 | 27.4 | 
COc1ccc(-c2c(-c3ccc(C#N)c(F)c3)nc(N3CCC(C)(N)CC3)n3ccnc23)cc1O [Example 143, 4-(5-(4-amino-4-methylpiperidin-1-yl)-8-(3-hydroxy-4-methoxyphenyl)imidazolo[1,2-c]pyrimidin-7-yl)-2-fluorobenzonitrile] | 5.5 ± 2.9 | 4.82 | 
COc1ccc(-c2c(O)cc(N3CCC(N)CC3)nc2-c2ccc(C#N)c(F)c2)c(F)c1 [Example 36, 4-(6-(4-aminopiperidin-1-yl)-3-(2-fluoro-4-methoxyphenyl)-4-hydroxypyridin-2-yl)-2-fluorobenzonitrile hydrochloride] | 35.2 | 21.2 | 
N#Cc1ccc(-c2nc(N3C4CCC3CC(N)C4)n3ccnc3c2-c2ccc(Cl)c(O)c2)cc1F (stereo not shown) [Example 158, 4-(5-(3-amino-8-azabicyclo[3.2.1]octane-8-yl)-8-(4-chloro-3-hydroxyphenyl)imidazolo[1,2-c]pyrimidin-7-yl)-2-fluorobenzonitrile hydrochloride] | 0.2 ± 0.2 | 0.763 | 
COc1ccc(-c2c(-c3ccc(C#N)c(F)c3)nc(N3CC4CCC(C3)C4N)n3ccnc23)cc1F (stereo not shown) [Example 162, 4-(5-(8-amino-3-azabicyclo [3.2.1]octyl-3-yl)-8-(3-fluoro-4-methoxyphenyl)imidazolo[1,2-c]pyrimidin-7-yl)-2-fluorobenzonitrile hydrochloride] | 59.9 | 11.7 | 
COc1ccc(-c2c(-c3ccc(C#N)c(F)c3)nc(N3CCC(N(C)C)CC3)n3ccnc23)cc1O [Example 140, 4-(5-(4 (dimethylamino)piperidin-1-yl)-8-(3-hydroxy-4-methoxyphenyl)imidazolo[1,2-c]pyrimidin-7-yl)-2-fluorobenzonitrile] | 0.4 ± 0.1 | 0.2 ± 0.15 | 
CNC1CCCN(c2nc(-c3ccc(C#N)c(F)c3)c(-c3ccc(OC)c(F)c3)c3nccn23)C1 (stereo not shown) [Example 119, 2-fluoro-4-(8-(3-fluoro-4-methoxyphenyl)-5-(3-(methylamino)piperidin-1-yl)imidazolo[1,2-c]pyrimidin-7-yl) benzonitrile] | 9.54 ± 1.2 | 39.1 | 
COc1ccc(C2CC2NCc2c(OC)cc(N3CCC(N)CC3)nc2-c2ccc(C#N)c(F)c2)cc1F (stereo not shown) [Example 252] | 73.7 |  | IC50 (NCI-H1417 cells; NCI-H1417 cells, 7 days, CellTiter-Glo, read-out: NCI-H1417 proliferation inhibition IC50): > 1000 nM
Cc1noc2cc(-c3sc(C(=O)N4C5CCC4CC(N)C5)cc3-c3ccncc3)c(F)cc12 (stereo not shown) [Example 204, (3-amino-8-azabicyclo [3.2.1]octane-8-yl) (5-(5-fluoro-3-methylbenzo [d]isoxazol-6-yl)-4-(pyridin-4-yl)thiophen-2-yl)methanone hydrochloride] | 12.2 ± 7.3 | 118 | 
COCCNC1CCN(c2cc(O)c(-c3ccc(OC)c(F)c3)c(-c3ccc(C#N)c(F)c3)n2)CC1 [Example 49, 2-fluoro-4-(3-(3-fluoro-4-methoxyphenyl)-4-hydroxy-6-(4-((2-methoxyethyl)amino)piperidin-1-yl)pyridin-2-yl)benzonitrile] | 61.4 | 228 | 
COc1cc(-c2c(OC)cc(N3CCC(N)CC3)nc2-c2ccc(C#N)c(F)c2)ccc1O [Example 97, 4-(6-(4-aminopiperidin-1-yl)-3-(4-hydroxy-4-methoxyphenyl)-4-methoxypyridin-2-yl)-2-fluorobenzonitrile] | 88.5 | 185 | 
CC(C)(O)COc1ccc(-c2c(O)cc(N3CCC(N)CC3)nc2-c2ccc(C#N)c(F)c2)cc1F [Example 38, 4-(6-(4-aminopiperine-1-yl)-3-(3-fluoro-4-(2-hydroxy-2-methylpropoxy)phenyl)-4-hydroxypyridin-2-yl)-2-fluorobenzonitrile hydrochloride] | 57.6 | 179 | 
Cc1ccc(-c2cnc(N3CCC(N)CC3)c(C#N)c2-c2ccc(C#N)c(F)c2)cc1O [Example 67, 2-(4-aminopiperidin-1-yl)-4-(4-cyano-3-fluorophenyl)-5-(3-hydroxy-4-methylphenyl) nicotinonitrile hydrochloride] | 0.2 ± 0.1 | 0.2 | 
Cc1ccc(-c2c(-c3ccc(C#N)c(F)c3)nc(N3CCC(C)(N)CC3)n3ccnc23)cc1O [Example 145, 4-(5-(4-amino-4-methylpiperidin-1-yl)-8-(3-hydroxy-4-methylphenyl)imidazolo[1,2-c]pyrimidin-7-yl)-2-fluorobenzonitrile] | 1 ± 0.2 | 2.42 | 
Cc1ccc(-c2c(-c3ccc(C#N)c(F)c3)nc(N3CC4CCC(C3)C4N)n3ccnc23)cc1O (stereo not shown) [Example 159, 4-(5-(8-amino-3-azabicyclo[3. 2.1]octane-3-yl)-8-(3-hydroxy-4-methylphenyl)imidazolo[1,2-c]pyrimidin-7-yl)-2-fluorobenzonitrile] | 2.8 ± 1 | 5.82 | 
COc1ccc(-c2cnc(N3CC4CCC3CC4N)c(C#N)c2-c2ccc(C#N)c(F)c2)cc1O (stereo not shown) [Example 76, 2-(5-amino-2-azabicyclo[2.2.2]octane-2-yl)-4-(4-cyano-3-fluorophenyl)-5-(3-hydroxy-4-methoxyphenyl) nicotinonitrile] | 4.9 ± 2.5 | 1.37 | 
